Data published in the NIST ThermoML archive (doi:10.1016/j.jct.2004.09.007).
Numbers after ± are expanded uncertainties.

Tests used:
[1] = molar heat capacity at constant pressure; conditions: 101.3 kPa, Liquid, Large sample (1 g) DSC
[2] = 298.15 K; 101.33 kPa; Liquid; Pycnometric method
[3] = molar heat capacity at constant pressure; xn = mol fraction of the nth substance listed; conditions: 101.3 kPa, Liquid, Large sample (1 g) DSC, x2 = 0

## CC(O)CCO (centres undefined) [1,3-butanediol]
[1]; 285.15 K
  molar heat capacity at constant pressure: 211.74 ± 3.3 J/K/mol
[1]; 285.65 K
  molar heat capacity at constant pressure: 212.17 ± 3.3 J/K/mol
[1]; 288.15 K
  molar heat capacity at constant pressure: 213.57 ± 3.3 J/K/mol
[1]; 290.65 K
  molar heat capacity at constant pressure: 215.06 ± 3.3 J/K/mol
[1]; 293.15 K
  molar heat capacity at constant pressure: 216.58 ± 3.4 J/K/mol
[1]; 295.65 K
  molar heat capacity at constant pressure: 218.04 ± 3.4 J/K/mol
[1]; 298.15 K
  molar heat capacity at constant pressure: 219.62 ± 3.4 J/K/mol
[1]; 300.65 K
  molar heat capacity at constant pressure: 221.14 ± 3.4 J/K/mol
[1]; 303.15 K
  molar heat capacity at constant pressure: 222.8 ± 3.5 J/K/mol
[1]; 305.65 K
  molar heat capacity at constant pressure: 224.37 ± 3.5 J/K/mol
[1]; 308.15 K
  molar heat capacity at constant pressure: 226.07 ± 3.5 J/K/mol
[1]; 310.65 K
  molar heat capacity at constant pressure: 227.65 ± 3.5 J/K/mol
[1]; 313.15 K
  molar heat capacity at constant pressure: 229.24 ± 3.5 J/K/mol
[1]; 315.65 K
  molar heat capacity at constant pressure: 230.82 ± 3.6 J/K/mol
[1]; 318.15 K
  molar heat capacity at constant pressure: 232.6 ± 3.6 J/K/mol
[1]; 320.65 K
  molar heat capacity at constant pressure: 234.14 ± 3.6 J/K/mol
[1]; 323.15 K
  molar heat capacity at constant pressure: 235.83 ± 3.6 J/K/mol
[1]; 325.65 K
  molar heat capacity at constant pressure: 237.52 ± 3.7 J/K/mol
[1]; 328.15 K
  molar heat capacity at constant pressure: 239.08 ± 3.7 J/K/mol
[1]; 330.65 K
  molar heat capacity at constant pressure: 240.59 ± 3.7 J/K/mol
[1]; 333.15 K
  molar heat capacity at constant pressure: 242.28 ± 3.8 J/K/mol
[1]; 335.65 K
  molar heat capacity at constant pressure: 243.86 ± 3.8 J/K/mol
[1]; 338.15 K
  molar heat capacity at constant pressure: 245.11 ± 3.8 J/K/mol
[1]; 340.65 K
  molar heat capacity at constant pressure: 247.19 ± 3.8 J/K/mol
[1]; 343.15 K
  molar heat capacity at constant pressure: 248.62 ± 3.9 J/K/mol
[1]; 345.65 K
  molar heat capacity at constant pressure: 250.13 ± 3.9 J/K/mol
[1]; 348.15 K
  molar heat capacity at constant pressure: 251.66 ± 3.9 J/K/mol
[1]; 350.65 K
  molar heat capacity at constant pressure: 253.24 ± 3.9 J/K/mol
[1]; 353.15 K
  molar heat capacity at constant pressure: 254.86 ± 4 J/K/mol
[2]
  mass density: 1000.42 ± 1 kg/m3

## CCCCO [butan-1-ol]
[1]; 285.15 K
  molar heat capacity at constant pressure: 168.64 ± 2.6 J/K/mol
[1]; 285.65 K
  molar heat capacity at constant pressure: 169.01 ± 2.6 J/K/mol
[1]; 288.15 K
  molar heat capacity at constant pressure: 170.39 ± 2.6 J/K/mol
[1]; 290.65 K
  molar heat capacity at constant pressure: 172 ± 2.7 J/K/mol
[1]; 293.15 K
  molar heat capacity at constant pressure: 173.56 ± 2.7 J/K/mol
[1]; 295.65 K
  molar heat capacity at constant pressure: 175.19 ± 2.7 J/K/mol
[1]; 298.15 K
  molar heat capacity at constant pressure: 176.82 ± 2.7 J/K/mol
[1]; 300.65 K
  molar heat capacity at constant pressure: 178.53 ± 2.8 J/K/mol
[1]; 303.15 K
  molar heat capacity at constant pressure: 180.42 ± 2.8 J/K/mol
[1]; 305.65 K
  molar heat capacity at constant pressure: 182.27 ± 2.8 J/K/mol
[1]; 308.15 K
  molar heat capacity at constant pressure: 184.15 ± 2.9 J/K/mol
[1]; 310.65 K
  molar heat capacity at constant pressure: 186.08 ± 2.9 J/K/mol
[1]; 313.15 K
  molar heat capacity at constant pressure: 187.99 ± 2.9 J/K/mol
[1]; 315.65 K
  molar heat capacity at constant pressure: 189.99 ± 2.9 J/K/mol
[1]; 318.15 K
  molar heat capacity at constant pressure: 192.06 ± 3 J/K/mol
[1]; 320.65 K
  molar heat capacity at constant pressure: 194.2 ± 3 J/K/mol
[1]; 323.15 K
  molar heat capacity at constant pressure: 196.35 ± 3 J/K/mol
[1]; 325.65 K
  molar heat capacity at constant pressure: 198.45 ± 3.1 J/K/mol
[1]; 328.15 K
  molar heat capacity at constant pressure: 200.45 ± 3.1 J/K/mol
[1]; 330.65 K
  molar heat capacity at constant pressure: 202.76 ± 3.1 J/K/mol
[1]; 333.15 K
  molar heat capacity at constant pressure: 204.94 ± 3.2 J/K/mol
[1]; 335.65 K
  molar heat capacity at constant pressure: 207.1 ± 3.2 J/K/mol
[1]; 338.15 K
  molar heat capacity at constant pressure: 209.17 ± 3.2 J/K/mol
[1]; 340.65 K
  molar heat capacity at constant pressure: 211.74 ± 3.3 J/K/mol
[1]; 343.15 K
  molar heat capacity at constant pressure: 213.82 ± 3.3 J/K/mol
[1]; 345.65 K
  molar heat capacity at constant pressure: 216.35 ± 3.4 J/K/mol
[1]; 348.15 K
  molar heat capacity at constant pressure: 218.32 ± 3.4 J/K/mol
[1]; 350.65 K
  molar heat capacity at constant pressure: 220.5 ± 3.4 J/K/mol
[1]; 353.15 K
  molar heat capacity at constant pressure: 222.81 ± 3.5 J/K/mol
[2]
  mass density: 805.82 ± 1 kg/m3

## CCCCO [butan-1-ol] + CC(O)CCO
[3]; 285.15 K
  molar heat capacity at constant pressure: 168.64 ± 2.6 J/K/mol
[3]; 285.65 K
  molar heat capacity at constant pressure: 169.01 ± 2.6 J/K/mol
[3]; 288.15 K
  molar heat capacity at constant pressure: 170.39 ± 2.6 J/K/mol
[3]; 290.65 K
  molar heat capacity at constant pressure: 172 ± 2.7 J/K/mol
[3]; 293.15 K
  molar heat capacity at constant pressure: 173.56 ± 2.7 J/K/mol
[3]; 295.65 K
  molar heat capacity at constant pressure: 175.19 ± 2.7 J/K/mol
[3]; 298.15 K
  molar heat capacity at constant pressure: 176.82 ± 2.7 J/K/mol
[3]; 300.65 K
  molar heat capacity at constant pressure: 178.53 ± 2.8 J/K/mol
[3]; 303.15 K
  molar heat capacity at constant pressure: 180.42 ± 2.8 J/K/mol
[3]; 305.65 K
  molar heat capacity at constant pressure: 182.27 ± 2.8 J/K/mol
[3]; 308.15 K
  molar heat capacity at constant pressure: 184.15 ± 2.9 J/K/mol
[3]; 310.65 K
  molar heat capacity at constant pressure: 186.08 ± 2.9 J/K/mol
[3]; 313.15 K
  molar heat capacity at constant pressure: 187.99 ± 2.9 J/K/mol
[3]; 315.65 K
  molar heat capacity at constant pressure: 189.99 ± 2.9 J/K/mol
[3]; 318.15 K
  molar heat capacity at constant pressure: 192.06 ± 3 J/K/mol
[3]; 320.65 K
  molar heat capacity at constant pressure: 194.2 ± 3 J/K/mol
[3]; 323.15 K
  molar heat capacity at constant pressure: 196.35 ± 3 J/K/mol
[3]; 325.65 K
  molar heat capacity at constant pressure: 198.45 ± 3.1 J/K/mol
[3]; 328.15 K
  molar heat capacity at constant pressure: 200.45 ± 3.1 J/K/mol
[3]; 330.65 K
  molar heat capacity at constant pressure: 202.76 ± 3.1 J/K/mol
[3]; 333.15 K
  molar heat capacity at constant pressure: 204.94 ± 3.2 J/K/mol
[3]; 335.65 K
  molar heat capacity at constant pressure: 207.1 ± 3.2 J/K/mol
[3]; 338.15 K
  molar heat capacity at constant pressure: 209.17 ± 3.2 J/K/mol
[3]; 340.65 K
  molar heat capacity at constant pressure: 211.74 ± 3.3 J/K/mol
[3]; 343.15 K
  molar heat capacity at constant pressure: 213.82 ± 3.3 J/K/mol
[3]; 345.65 K
  molar heat capacity at constant pressure: 216.35 ± 3.4 J/K/mol
[3]; 348.15 K
  molar heat capacity at constant pressure: 218.32 ± 3.4 J/K/mol
[3]; 350.65 K
  molar heat capacity at constant pressure: 220.5 ± 3.4 J/K/mol
[3]; 353.15 K
  molar heat capacity at constant pressure: 222.81 ± 3.5 J/K/mol
